The target of assay [1] is T1, MT1-MMP (Mus musculus, UniProt P53690).
T1 construct: Endogenous MT1-MMP is latent in non-adherent IS-CD8^+ cells; endogenous in cells; host or cells: IS-CD8+ T cells (TGNFC8 clone, NOD mouse), adherent to gelatin
The assay is described as follows: MT1-MMP-dependent MMP-2 activation in adherent IS-CD8+ cells, gelatin zymography. It counts as cell-based, NOD mouse. The protocol: MT1-MMP-dependent MMP-2 Activation and Gelatin Zymography—IS-CD8^+ cells (1×10^6) were either allowed to adhere for 4 h in serum-free unsupplemented Click's medium to plastic coated with 2% gelatin or kept in solution. Under these experimental conditions, the vast majority of cells became attached to gelatin. In 4 h, media samples (30 μl each) were withdrawn and analyzed by gelatin zymography (Deryugina, E. I., et al. (2001)) to identify the proteolytic activity and the activation status of MMP-2 naturally synthesized by IS-CD8^+ cells. Where indicated, cells were supplemented with external purified pro-MMP-2 (20 ng). Pro-MMP-2 was isolated from a conditioned medium of p2AHT2A72 cells derived from an HT1080 fibrosarcoma cell line sequentially transfected with the E1A and MMP-2 cDNAs (Strongin, A. Y., et al. (1995)).
MT1-MMP-dependent MMP-2 activation and gelatin zymography—IS-CD8^+ cells (1×10^6) were either allowed to adhere for 4 h in serum-free unsupplemented Click's medium to the plastic coated with 2% gelatin or kept in solution. In 18 h, media samples (30 μl each) were withdrawn and analyzed by gelatin zymography (Deryugina, E. I., et al. (2001)) to identify the proteolytic activity and the activation status of MMP-2 naturally synthesized by IS-CD8^+ cells. […] Pro-MMP-2 was isolated from a conditioned medium of p2AHT2A72 cells derived from an HT1080 fibrosarcoma cell line sequentially transfected with the E1A and MMP-2 cDNAs (Strongin, A. Y., et al. (1995)).

A further assay relates to NOD mice. The assay is described as follows: Spontaneous diabetes in NOD mice, insulin jointly with AG3340. In kind it is in vivo. The protocol: Newly diabetic NOD mice—NOD mice developed diabetes in approximately 5 months after the birth. The onset of spontaneous diabetes was identified by assessing urine glucose levels with Diastix® strips (Bayer). Mice with urine glucose levels >2000 mg/dl for three consecutive days were considered diabetic. […] Injections were continued for 40 days and then mice were sacrificed. Leukocytes and granulated β cells were stained with H&E and aldehyde fuchsin, respectively, in the sections of paraformaldehyde-fixed, paraffin-embedded, pancreata. […] To identify hormone-producing cells the sections were stained with the antibody to insulin (Linco Research, St. Charles, Mo.) and glucagons (DacoCytomation, Carpinteria, Calif.) followed by species-specific secondary horseradish peroxidase-conjugated antibody and a 3,3′-diaminobenzidine substrate.
Insulin injections were then suspended. Mice which after the onset of the disease received insulin became hyperglycemic in a matter of 2-3 days and were then sacrificed according to NIH guidelines.

Assay [2] has as its target MT1-MMP. The settings on record: cited from earlier work.
The test system of assay [3] is CD44 shedding in IS-CD8+ cells. The assay is described as follows: CD44 shedding in adherent IS-CD8+ cells, Western blotting. In kind it is cell-based, NOD mouse. The protocol: Western Blotting—IS-CD8^+ cells were surface biotinylated for 1 h at 4° C. with 0.1 mg/ml sulfo-NHS-LC-biotin (Pierce, Rockford, Ill.). Following washes to remove biotin, cells were co-incubated for 2 h with MT1-MMP-CAT in serum-free, unsupplemented Click's medium. The cells were then lysed with 50 mM N-octyl-β-D-glucopyranoside in phosphate-buffered saline supplemented with 1 mM CaCl2, 1 mM MgCl2, and protease inhibitor mixture containing phenylmethylsulfonyl fluoride (1 mM) and aprotinin, pepstatin, and leupeptin (1 μg/ml each). Biotin-labeled CD44 was captured from the cell lysate and from the medium aliquots on streptavidin-agarose beads. The captured samples were examined by Western blotting with the CD44 (clone IM7.8.1) antibody to determine the released, soluble, CD44 ectodomain in the medium samples and the residual, membrane-anchored, cellular CD44 in the cell lysates.
Western blotting—IS-CD8^+ cells were surface biotinylated for 1 hr at 4° C. with 0.1 mg/ml of sulfo-NES-LC-biotin (Pierce). Following washes to remove biotin, the labeled cells were allowed to adhere in serum-free medium to plastic coated with 2% type I collagen/gelatin for 4 h or were kept in suspension. Under these experimental conditions, the vast majority of the cells became attached to gelatin. […] The cells were then lysed with 50 mM N-octyl-β-D-glucopyranoside in PBS supplemented with 1 mM CaCl2, 1 mM MgCl2, and protease inhibitor cocktail containing phenylmethylsulfonyl fluoride (1 mM) and aprotinin, pepstatin, and leupeptin (1 μg/ml each). Biotin-labeled CD44 was captured from the cell lysate and from the medium aliquots on streptavidine-Agarose beads. The captured samples were examined by Western blotting with the CD44 (clone IM7.8.1) antibody to determine the released, soluble, CD44 ectodomain in the medium samples and the residual, membrane-anchored, cellular CD44 in the cell lysates.
(In general: A western blot detects proteins with antibodies after separation by electrophoresis.)

Setting [4] is: AG3340 1 mg/kg i.p. with insulin, 40 days.

Results on 1 compound are retold here after US20070203244A1, “INHIBITORS OF MEMBRANE TYPE-1 MATRIX METALLOPROTEINASE FOR THE TREATMENT OF INSULIN-DEPENDENT DIABETES MELLITUS” (priority 2006, published 2007).

SMILES strings stand for the structures.

Consider `CC1(C)SCCN(S(=O)(=O)c2ccc(Oc3ccncc3)cc2)[C@H]1C(=O)NO` [AG3340], for which the “activation of MMP-2 in adherent cells” value was “fully blocked” on MT1-MMP [1] (Example 2: AG3340 50 μM, TIMP-1 and TIMP-2 100 ng/ml, 18 h); “fully blocked” on MT1-MMP [1] (Example 3: inhibitors added for 18 h). Moreover, in the assay with NOD mice (setting [4]), the “islet regeneration in the pancreatic parenchyma” value is on record as “de novo formation of the islet-like structures”. Further, the “number of the intact islets and the islets with limited peri-islet insulitis” value in the assay on NOD mice (setting [4]) is reported as “increase”. The “glycemia after insulin injections were suspended” value with NOD mice (insulin jointly with AG3340 for 40 days, then no external insulin) was “normoglycemic/mildly hyperglycemic for several weeks”. For the same compound, the “severity of insulitis compared to the control” value with NOD mice (insulin s.c. jointly with AG3340 1 mg/kg i.p. every two-three days, 40 days) is “significant and promising reduction”. Moreover, the “return of overtly diabetic mice to normoglycemia” value in the assay on NOD mice (short-term treatment, AG3340 1 mg/kg i.p. with insulin, 40 days) was “not sufficient”. At MT1-MMP [2], the “Ki for MT1-MMP” value is reported as “sub-nanomolar”. Also, the “shedding of CD44 in adherent cells” value in assay [3] (Example 2: AG3340 50 μM, TIMP-1 and TIMP-2 100 ng/ml) was “fully blocked”; in assay [3] (Example 3) it was “fully blocked”.
